Source: US20250145594A1, “MODULATORS OF THE INTEGRATED STRESS PATHWAY” (Calico Life Sciences LLC, priority 2020, published 2025)

Tested on: ATF4 luciferase reporter in HEK293T cells
Assay: ATF4-Luc assay (in vitro model of VWMD)
Type: cell-based, human
Settings: Homo sapiens, HEK-293T, 7 h, HEK293T cells carrying the ATF4 luciferase reporter, 1 μg/mL tunicamycin, One Glo luminescence
Method in brief: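 Stable HEK293T line expressing firefly luciferase behind the human ATF4 5′-UTR, treated with 1 μg/mL tunicamycin plus compound for 7 hours. Luminescence read with One Glo; EC50 determined.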

For `O=C(CO[C@H]1C[C@@H](OC(F)(F)F)C1)NC12CCC(NC(=O)[C@@H]3C[C@@H](O)c4cc(Cl)ccc4O3)(CC1)C[C@@H]2O` (single isomer, unassigned) [Compound 279], the EC50 was < 10 nM.

With `O=C(COc1ccc(Cl)c(F)c1)NC12CC(c3ccc(C(=O)N4CC(OC(F)(F)F)C4)nc3)(C1)C2` [Compound 605, 2-(4-chloro-3-fluorophenoxy)-N-(3-{6-[3-(trifluoromethoxy)azetidine-1-carbonyl]pyridin-3-yl}bicyclo[1.1.1]pentan-1-yl)acetamide] the EC50 was < 10 nM.

`C[C@@H](COc1cnn(C23CC(NC(=O)[C@H]4C[C@@H](O)c5cc(Cl)ccc5O4)(C2)C3)c1)OC(F)(F)F` [Compound 443, (2R,4R)-6-chloro-4-hydroxy-N-(3-{4-[(2S)-2-(trifluoromethoxy)propoxy]-1H-pyrazol-1-yl}bicyclo[1.1.1]pentan-1-yl)-3,4-dihydro-2H-1-benzopyran-2-carboxamide] gave an EC50 of 10 to 50 nM.

With `O=C(NC12CC(n3cc(CCCOC(F)(F)F)cn3)(C1)C2)[C@H]1C[C@@H](O)c2cc(Cl)c(F)cc2O1` [Compound 514, (2R,4R)-6-chloro-7-fluoro-4-hydroxy-N-(3-{4-[3-(trifluoromethoxy)propyl]-1H-pyrazol-1-yl}bicyclo[1.1.1]pentan-1-yl)-3,4-dihydro-2H-1-benzopyran-2-carboxamide] the EC50 was < 10 nM.

`O=C(NC12CC(c3ccnc(OCCOC(F)(F)F)n3)(C1)C2)[C@H]1C[C@@H](O)c2cc(Cl)ccc2O1` [Compound 525, (2R,4R)-6-chloro-4-hydroxy-N-(3-{2-[2-(trifluoromethoxy)ethoxy]pyrimidin-4-yl}bicyclo[1.1.1]pentan-1-yl)-3,4-dihydro-2H-1-benzopyran-2-carboxamide] was tested, and the EC50 was 10 to 50 nM.

`O=C(NC12CC(n3cc(OCCOC(F)(F)F)cn3)(C1)C2)[C@@H]1CNc2cc(Cl)ccc2O1` [Compound 519, (2S)-6-chloro-N-(3-{4-[2-(trifluoromethoxy)ethoxy]-1H-pyrazol-1-yl}bicyclo[1.1.1]pentan-1-yl)-3,4-dihydro-2H-1,4-benzoxazine-2-carboxamide] was tested, and the EC50 was 10 to 50 nM.

Work on `COc1ncc(OCC(=O)NC23CC(c4ccnc(OCCCOC(F)(F)F)c4)(C2)C3)cn1` [Compound 452, 2-[(2-methoxypyrimidin-5-yl)oxy]-N-(3-{2-[3-(trifluoromethoxy)propoxy]pyridin-4-yl}bicyclo[1.1.1]pentan-1-yl)acetamide] yielded an EC50 of 250 to 500 nM.

With `COc1ncc(-c2cnn(C34CC(NC(=O)[C@H]5C[C@@H](O)c6cc(Cl)ccc6O5)(C3)C4)c2)cn1` [Compound 320, (2R,4R)-6-chloro-4-hydroxy-N-{3-[4-(2-methoxypyrimidin-5-yl)-1H-pyrazol-1-yl]bicyclo[1.1.1]pentan-1-yl}-3,4-dihydro-2H-1-benzopyran-2-carboxamide] the EC50 was 10 to 50 nM.

With `O=C(COc1ccc(Cl)cc1O)NC12CC(n3cc(OCCOC(F)(F)F)cn3)(C1)C2` [Compound 616, 2-(4-chloro-2-hydroxyphenoxy)-N-(3-{4-[2-(trifluoromethoxy)ethoxy]-1H-pyrazol-1-yl}bicyclo[1.1.1]pentan-1-yl)acetamide] the EC50 was < 10 nM.

With `O=C(N[C@H]1CC[C@H](n2cc(OCCOC(F)(F)F)cn2)CC1)[C@H]1C[C@@H](O)c2cc(F)ccc2O1` [Compound 523, (2R,4R)-6-fluoro-4-hydroxy-N-[(1r,4R)-4-{4-[2-(trifluoromethoxy)ethoxy]-1H-pyrazol-1-yl}cyclohexyl]-3,4-dihydro-2H-1-benzopyran-2-carboxamide] the EC50 was < 10 nM.

For `O=C(NC12CC(n3cc(OC[C@H]4C[C@@H](OC(F)(F)F)C4)cn3)(C1)C2)[C@H]1C[C@@H](O)c2cc(Cl)ccc2O1` [Compound 402, (2R,4R)-6-chloro-4-hydroxy-N-[3-(4-{[cis-3-(trifluoromethoxy)cyclobutyl]methoxy}-1H-pyrazol-1-yl)bicyclo[1.1.1]pentan-1-yl]-3,4-dihydro-2H-1-benzopyran-2-carboxamide], the EC50 was < 10 nM.
